# Structures can show the parent of a compound that is named as a salt.
# What was measured:
# Adrenergic β2 = target: T1, Adrenergic β2 (Homo sapiens, UniProt P07550); experiment: Adrenergic β2 mediated cAMP production in H292 cells; type: cell-based; conditions: for EC50: H292 cells, cAMP by AlphaScreen, 60 minutes at room temperature, rolipram 300 μM, read-out: β2 pEC50 (converted); for β2 Int Act: Intrinsic Activity as a fraction relative to the maximum activity determined for formoterol
# T1 construct: Adherent H292 cells were removed from tissue culture flasks; endogenous in cells; host or cells: H292 cells
# Method: Adrenergic β2 mediated cAMP production
# H292 cells were grown in 225 cm2 flasks incubator at 37° C., 5% CO2 in RPMI medium containing, 10% (v/v) FBS (foetal bovine serum) and 2 mM L-glutamine.
# Adherent H292 cells were removed from tissue culture flasks by treatment with Accutase™ cell detachment solution for 15 minutes. Flasks were incubated for 15 minutes in a humidified incubator at 37° C., 5% CO2. Detached cells were re-suspended in RPMI media (containing 10% (v/v) FBS and 2 mM L-glutamine) at 0.05×10^6 cells per mL. 5000 cells in 100 μL were added to each well of a tissue-culture-treated 96-well plate and the cells incubated overnight in a humidified incubator at 37° C., 5% CO2. The culture media was removed and cells were washed twice with 100 μL assay buffer and replaced with 50 μL assay buffer (HBSS solution containing 10 mM HEPES pH7.4 and 5 mM glucose). Cells were rested at room temperature for 20 minutes after which time 25 μL of rolipram (1.2 mM made up in assay buffer containing 2.4% (v/v) dimethylsulphoxide) was added. Cells were incubated with rolipram for 10 minutes after which time test compounds were added and the cells were incubated for 60 minutes at room temperature. The final rolipram concentration in the assay was 300 μM and final vehicle concentration was 1.6% (v/v) dimethylsulphoxide. The reaction was stopped by removing supernatants, washing once with 100 μL assay buffer and replacing with 50 μL lysis buffer. The cell monolayer was frozen at −80° C. for 30 minutes (or overnight).
# The concentration of cAMP (cyclic adenosine monophosphate) in the cell lysate was determined using AlphaScreen™ methodology. The frozen cell plate was thawed for 20 minutes on a plate shaker then 10 μL of the cell lysate was transferred to a 96-well white plate. 40 μL of mixed AlphaScreen™ detection beads pre-incubated with biotinylated cAMP, was added to each well and the plate incubated at room temperature for 10 hours in the dark. The AlphaScreen™ signal was measured using an EnVision spectrophotometer (Perkin-Elmer Inc.) with the recommended manufacturer's settings. cAMP concentrations were determined by reference to a calibration curve determined in the same experiment using standard cAMP concentrations. Concentration response curves for agonists were constructed and data was fitted to a four parameter logistic equation to determine both the pEC50 and Intrinsic Activity. Intrinsic Activity was expressed as a fraction relative to the maximum activity determined for formoterol in each experiment.
# [1] = target: T2, recombinant human adrenergic beta 1 receptors (Homo sapiens, UniProt P08588); experiment: Adrenergic β1 selectivity binding assay ([125I]-Iodocyanopindolol); conditions: inhibition of [125I]-Iodocyanopindolol (0.036 nM) binding; read-out: β1 bind p IC50 (converted)
# T2 construct: purchased Euroscreen
# Method: (§1) Membranes containing recombinant human adrenergic beta 1 receptors were obtained from Euroscreen. These were diluted in Assay Buffer (50 mM HEPES, 1 mM EDTA, 120 mM NaCl, 0.1% gelatin, pH 7.4) to provide a final concentration of membranes that gave a clear window between maximum and minimum specific binding.
# Assays were performed in U-bottomed 96-well polypropylene plates. 10 μL [^125I]-Iodocyanopindolol (0.036 nM final concentration) and 10 μL of test compound (10× final concentration) were added to each test well. For each assay plate 8 replicates were obtained for [^125I]-Iodocyanopindolol binding in the presence of 10 μL vehicle (10% (v/v) DMSO in Assay Buffer; defining maximum binding) or 10 μL Propranolol (10 μM final concentration; defining non-specific binding (NSB)). Membranes were then added to achieve a final volume of 100 μL. The plates were incubated for 2 hours at room temperature and then filtered onto PEI coated GF/B filter plates, pre-soaked for 1 hour in Assay Buffer, using a 96-well plate Tomtec cell harvester. Five washes with 250 μL wash buffer (50 mM HEPES, 1 mM EDTA, 120 mM NaCl, pH 7.4) were performed at 4° C. to remove unbound radioactivity. The plates were dried then sealed from underneath using Packard plate sealers and MicroScint-O (50 μL) was added to each well. The plates were sealed (TopSeal A) and filter-bound radioactivity was measured with a scintillation counter (TopCount, Packard BioScience) using a 3-minute counting protocol.
# (§2) Total specific binding (B0) was determined by subtracting the mean NSB from the mean maximum binding. NSB values were also subtracted from values from all other wells. […] Data was fitted to a four parameter logistic equation to determine the compound potency, which was expressed as pIC50 (negative log molar concentration inducing 50% inhibition of [^125I]-Iodocyanopindolol binding).
# [2] = target: T3, recombinant human Dopamine Subtype D2s receptors (Homo sapiens, UniProt P14416); experiment: Dopamine D2 selectivity binding assay ([3H]-spiperone); conditions: inhibition of [3H]-spiperone (0.16 nM) binding; read-out: D2 bind pIC50 (converted)
# T3 construct: purchased Perkin Elmer
# Method: as §1, with “Dopamine Subtype D2s” for “adrenergic beta 1”, “Perkin Elmer.” for “Euroscreen.”
# Assays were performed in U-bottomed 96-well polypropylene plates. 30 μL [^3H]-spiperone (0.16 nM final concentration) and 30 μL of test compound (10× final concentration) were added to each test well. For each assay plate 8 replicates were obtained for [^3H]-spiperone binding in the presence of 30 μL vehicle (10% (v/v) DMSO in Assay Buffer; defining maximum binding) or 30 μL Haloperidol (10 μM final concentration; defining non-specific binding (NSB)). Membranes were then added to achieve a final volume of 300 μL. The plates were incubated for 2 hours at room temperature and then filtered onto PEI coated GF/B filter plates, pre-soaked for 1 hour in Assay Buffer, using a 96-well plate Tomtec cell harvester. Five washes with 250 μL wash buffer (50 mM HEPES, 1 mM EDTA, 120 mM NaCl, pH 7.4) were performed at 4° C. to remove unbound radioactivity. The plates were dried then sealed from underneath using Packard plate sealers and MicroScint-O (50 μL) was added to each well. The plates were sealed (TopSeal A) and filter-bound radioactivity was measured with a scintillation counter (TopCount, Packard BioScience) using a 3-minute counting protocol.
# as §2, with “[^3H]-spiperone” for “[^125I]-Iodocyanopindolol”
# T2 sequence (P08588 whole entry): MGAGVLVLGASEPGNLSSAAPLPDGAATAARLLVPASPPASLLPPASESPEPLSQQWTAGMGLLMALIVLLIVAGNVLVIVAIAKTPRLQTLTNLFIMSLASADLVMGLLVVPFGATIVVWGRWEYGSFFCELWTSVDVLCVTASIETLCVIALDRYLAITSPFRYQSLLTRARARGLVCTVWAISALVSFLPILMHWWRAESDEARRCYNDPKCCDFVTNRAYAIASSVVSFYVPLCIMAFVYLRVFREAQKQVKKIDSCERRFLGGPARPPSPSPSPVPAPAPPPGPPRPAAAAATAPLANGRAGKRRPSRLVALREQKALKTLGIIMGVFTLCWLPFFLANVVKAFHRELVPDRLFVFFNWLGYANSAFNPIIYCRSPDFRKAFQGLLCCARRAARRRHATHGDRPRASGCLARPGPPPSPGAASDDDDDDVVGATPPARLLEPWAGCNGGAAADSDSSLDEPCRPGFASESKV
# T1 sequence (P07550 whole entry): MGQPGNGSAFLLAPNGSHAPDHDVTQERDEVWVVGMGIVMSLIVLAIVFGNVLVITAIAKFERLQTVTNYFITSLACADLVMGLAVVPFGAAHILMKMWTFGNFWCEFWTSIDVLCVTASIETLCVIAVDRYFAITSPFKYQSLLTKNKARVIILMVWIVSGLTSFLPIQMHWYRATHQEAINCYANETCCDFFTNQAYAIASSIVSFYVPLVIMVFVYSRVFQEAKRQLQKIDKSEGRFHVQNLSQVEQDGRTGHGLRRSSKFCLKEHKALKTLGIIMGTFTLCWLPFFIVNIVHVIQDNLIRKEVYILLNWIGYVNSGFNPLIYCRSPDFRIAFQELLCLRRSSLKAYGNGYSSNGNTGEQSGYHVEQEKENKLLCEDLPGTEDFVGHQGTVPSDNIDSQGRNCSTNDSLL
# T3 sequence (P14416 1-414 isoform P14416-2): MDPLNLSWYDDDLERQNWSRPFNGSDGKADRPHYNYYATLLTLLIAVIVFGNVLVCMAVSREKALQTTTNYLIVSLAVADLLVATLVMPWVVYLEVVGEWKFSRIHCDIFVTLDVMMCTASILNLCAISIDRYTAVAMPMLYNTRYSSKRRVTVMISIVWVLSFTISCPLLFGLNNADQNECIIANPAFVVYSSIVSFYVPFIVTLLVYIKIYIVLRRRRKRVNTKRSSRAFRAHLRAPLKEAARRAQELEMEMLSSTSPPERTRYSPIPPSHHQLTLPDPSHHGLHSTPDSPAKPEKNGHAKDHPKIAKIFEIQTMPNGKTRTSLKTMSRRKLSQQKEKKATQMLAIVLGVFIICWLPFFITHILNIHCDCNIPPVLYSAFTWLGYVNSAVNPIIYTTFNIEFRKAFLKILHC
Compound,EC50 (Adrenergic β2) [nM],β2 Int Act (Adrenergic β2),IC50 [1] [nM],IC50 [2] [nM]
"CCCC(CCC)N(CCNCCc1ccc(O)c2[nH]c(=O)sc12)C(=O)CCNCCc1ccc(F)cc1 [Example 64, N^3-[2-(4-Fluorophenyl)ethyl]-N^1-(2-{[2-(4-hydroxy-2-oxo-2,3-dihydro-1,3-benzothiazol-7-yl)ethyl]amino}ethyl)-N^1-(1-propylbutyl)-β-alaninamide bis-trifluoroacetic acid salt]",316,0.70,6310,200
"CC(C)(CO)CN(CCNCCc1ccc(O)c2[nH]c(=O)sc12)C(=O)CCNCCc1ccccc1Cl [Example 65, N^3-[2-(2-Chlorophenyl)ethyl]-N^1-(3-hydroxy-2,2-dimethylpropyl)-N^1-(2-{[2-(4-hydroxy-2-oxo-2,3-dihydro-1,3-benzothiazol-7-yl)ethyl]amino}ethyl)-β-alaninamide bis-trifluoroacetic acid salt]",12.6,0.59,1000,398
"CCCC[C@@H](C)N(CCNCCc1ccc(O)c2[nH]c(=O)sc12)C(=O)CCNCCc1ccccc1 [Example 101, N-(2-{[2-(4-Hydroxy-2-oxo-2,3-dihydro-1,3-benzothiazol-7-yl)ethyl]amino}ethyl)-N-[(1R)-1-methylpentyl]-N^3-(2-phenylethyl)-β-alaninamide bis-trifluoroacetic acid salt]",2.51,0.98,3980,31.6
"O=C(CCNCCc1cccc(Cl)c1)N(CCNCCc1ccc(O)c2[nH]c(=O)sc12)C1Cc2ccccc2C1 [Example 42, N^3-[2-(3-Chlorophenyl)ethyl]-N^1-(2,3-dihydro-1H-inden-2-yl)-N^1-(2-{[2-(4-hydroxy-2-oxo-2,3-dihydro-1,3-benzothiazol-7-yl)ethyl]amino}ethyl)-β-alaninamide bis-trifluoroacetic acid salt]",15.8,0.82,1260,100
"O=C(CCNCCc1ccc(Cl)cc1)N(CCNCCc1ccc(O)c2[nH]c(=O)sc12)C1CCCC1 [Example 28, N^3-[2-(4-Chlorophenyl)ethyl]-N-cyclopentyl-N-(2-{[2-(4-hydroxy-2-oxo-2,3-dihydro-1,3-benzothiazol-7-yl)ethyl]amino}ethyl)-β-alaninamide bis-trifluoroacetic acid salt]",10,0.87,6310,398
"O=C(CCNCCc1ccccc1)N(CCNCCc1ccc(O)c2[nH]c(=O)sc12)CC12CC3CC(CC(C3)C1)C2 [Example 59, N^1-(1-Adamantylmethyl)-N^1-(2-{[2-(4-hydroxy-2-oxo-2,3-dihydro-1,3-benzothiazol-7-yl)ethyl]amino}ethyl)-N^3-(2-phenylethyl)-β-alaninamide bis-trifluoroacetic acid salt]",5.01,0.85,794,398
"O=C(CCNCCc1cccc(Cl)c1)N(CCNCCc1ccc(O)c2[nH]c(=O)sc12)C1CCCC1 [Example 30, N^3-[2-(3-Chlorophenyl)ethyl]-N-cyclopentyl-N-(2-{[2-(4-hydroxy-2-oxo-2,3-dihydro-1,3-benzothiazol-7-yl)ethyl]amino}ethyl)-β-alaninamide bis-trifluoroacetic acid salt]",5.01,0.96,3160,316
"O=C(CCNCCc1ccccc1)N(CCNCCc1ccc(O)c2[nH]c(=O)sc12)C1Cc2ccccc2C1 [Example 41, N^1-(2,3-Dihydro-1H-inden-2-yl)-N^1-(2-{[2-(4-hydroxy-2-oxo-2,3-dihydro-1,3-benzothiazol-7-yl)ethyl]amino}ethyl)-N^3-(2-phenylethyl)-β-alaninamide bis-trifluoroacetic acid salt]",31.6,0.99,1580,200
"C[C@H](CNCCC(=O)N(CCNCCc1ccc(O)c2[nH]c(=O)sc12)C1CCCC1)c1ccccc1 [Example 31, N-cyclopentyl-N-(2-{[2-(4-hydroxy-2-oxo-2,3-dihydro-1,3-benzothiazol-7-yl)ethyl]amino}ethyl)-N^3-[(2S)-2-phenylpropyl]-β-alaninamide bis-trifluoroacetic acid salt]",10,0.92,6310,251
"O=C(CCNCCc1cccc(F)c1F)N(CCNCCc1ccc(O)c2[nH]c(=O)sc12)C1CCCCC1 [Example 81, N^1-Cyclohexyl-N^3-[2-(2,3-difluorophenyl)ethyl]-N^1-(2-{[2-(4-hydroxy-2-oxo-2,3-dihydro-1,3-benzothiazol-7-yl)ethyl]amino}ethyl)-β-alaninamide bis-trifluoroacetic acid salt]",2.51,0.89,6310,316
"Cc1cccc(CCNCCC(=O)N(CCNCCc2ccc(O)c3[nH]c(=O)sc23)C2CCCCC2)c1 [Example 14, N-Cyclohexyl-N-(2-{[2-(4-hydroxy-2-oxo-2,3-dihydro-1,3-benzothiazol-7-yl)ethyl]amino}ethyl)-N^3-[2-(3-methylphenyl)ethyl]-β-alaninamide bis-trifluoroacetic acid salt]",3.98,0.84,7940,501
"O=C(CCNC[C@@H](O)c1ccccc1)N(CCNCCc1ccc(O)c2[nH]c(=O)sc12)C1CCCCC1 [Example 74, N^1-Cyclohexyl-N^1-(2-{[2-(4-hydroxy-2-oxo-2,3-dihydro-1,3-benzothiazol-7-yl)ethyl]amino}ethyl)-N^3-[(2S)-2-hydroxy-2-phenylethyl]-β-alaninamide bis-trifluoroacetic acid salt]",12.6,0.79,3160,501

# Reference: patent US20100022491A1, “4-HYDROXY-2-OXO-2,3-DIHYDRO-1,3-BENZOTHIAZOL-7YL COMPOUNDS FOR MODULATION OF B2-ADRENORECEPTOR ACTIVITY” (ASTRAZENECA AB, priority 2006, published 2010)
